According to patent US20240301409A1, “Chemically Modified Small Activating RNA” (RACTIGEN THERAPEUTICS, priority 2021, published 2024):

Tested on: T24 cells
Test: Cellular proliferation assay (CCK8) in T24 cells, alone and combined with Mitomycin C or valrubicin
Type: cell-based, human
Procedure, shortened: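 Cells transfected with saRNA RAG1-40-31 (0.1–50 nM) for 24 h, then Mitomycin C or valrubicin (1–10000 nM) added in paired concentrations; single-agent saRNA at 10 nM for 72 h. Viability by CCK8 absorbance at 450 nm after 1 h at 37 °C, as % of blank transfection control.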

RAG1-40-31: saRNA duplex: sense fCfCAACUCAUUCUCCAAG*U*C (SEQ ID NO 16); antisense U*A*fCfUfUGGAGAAfUGAGfUfUGG*fC*A (SEQ ID NO 12) (sense CCAACUCAUUCUCCAAGUC; antisense UACUUGGAGAAUGAGUUGGCA; 2'-F and phosphorothioate modifications; modified_base (1)..(2) (1,2)=2′-fluoro; modified_base (17)..(19) (17,18,19)=phosphorothioate (PS) backbone modification; modified_base (2)..(21) (2,3,19,20,21)=phosphorothioate (PS) backbone modification; modified_base (3)..(20) (3,4,5,12,16,17,20)=2′-fluoro)
Relative proliferation proportion of T24 cells (RAG1-40-31 0.1 nM + MMC 1 nM): 93.6% | Relative proliferation proportion of T24 cells (RAG1-40-31 0.1 nM + MMC 10 nM): 94.5% | Relative proliferation proportion of T24 cells (RAG1-40-31 0.1 nM + MMC 100 nM): 63.3% | Relative proliferation proportion of T24 cells (RAG1-40-31 0.1 nM + MMC 1000 nM): 17.6% | Relative proliferation proportion of T24 cells (RAG1-40-31 0.1 nM + MMC 10000 nM): 5.6% | Relative proliferation proportion of T24 cells (RAG1-40-31 0.1 nM + valrubicin 1 nm): 96.3% | Relative proliferation proportion of T24 cells (RAG1-40-31 0.1 nM + valrubicin 10 nm): 97.8% | Relative proliferation proportion of T24 cells (RAG1-40-31 0.1 nM + valrubicin 100 nm): 93.4% | Relative proliferation proportion of T24 cells (RAG1-40-31 0.1 nM + valrubicin 1000 nm): 59.6% | Relative proliferation proportion of T24 cells (RAG1-40-31 0.1 nM + valrubicin 10000 nm): 18.9% | Relative proliferation proportion of T24 cells (RAG1-40-31 0.1 nM, Control (no MMC)): 97.9% | Relative proliferation proportion of T24 cells (RAG1-40-31 0.1 nM, Control (no valrubicin)): 93.5% | Relative proliferation proportion of T24 cells (RAG1-40-31 0.5 nM + MMC 1 nM): 90.1% | Relative proliferation proportion of T24 cells (RAG1-40-31 0.5 nM + MMC 10 nM): 90.0% | Relative proliferation proportion of T24 cells (RAG1-40-31 0.5 nM + MMC 100 nM): 59.8% | Relative proliferation proportion of T24 cells (RAG1-40-31 0.5 nM + MMC 1000 nM): 16.8% | Relative proliferation proportion of T24 cells (RAG1-40-31 0.5 nM + MMC 10000 nM): 5.5% | Relative proliferation proportion of T24 cells (RAG1-40-31 0.5 nM + valrubicin 1 nm): 91.3% | Relative proliferation proportion of T24 cells (RAG1-40-31 0.5 nM + valrubicin 10 nm): 94.3% | Relative proliferation proportion of T24 cells (RAG1-40-31 0.5 nM + valrubicin 100 nm): 91.4% | Relative proliferation proportion of T24 cells (RAG1-40-31 0.5 nM + valrubicin 1000 nm): 51.8% | Relative proliferation proportion of T24 cells (RAG1-40-31 0.5 nM + valrubicin 10000 nm): 19.5% | Relative proliferation proportion of T24 cells (RAG1-40-31 0.5 nM, Control (no MMC)): 91.7% | Relative proliferation proportion of T24 cells (RAG1-40-31 0.5 nM, Control (no valrubicin)): 84.8% | Relative proliferation proportion of T24 cells (RAG1-40-31 1 nM + MMC 1 nM): 81.9% | Relative proliferation proportion of T24 cells (RAG1-40-31 1 nM + MMC 10 nM): 78.2% | Relative proliferation proportion of T24 cells (RAG1-40-31 1 nM + MMC 100 nM): 55.6% | Relative proliferation proportion of T24 cells (RAG1-40-31 1 nM + MMC 1000 nM): 14.7% | Relative proliferation proportion of T24 cells (RAG1-40-31 1 nM + MMC 10000 nM): 5.4% | Relative proliferation proportion of T24 cells (RAG1-40-31 1 nM + valrubicin 1 nm): 76.0% | Relative proliferation proportion of T24 cells (RAG1-40-31 1 nM + valrubicin 10 nm): 71.3% | Relative proliferation proportion of T24 cells (RAG1-40-31 1 nM + valrubicin 100 nm): 67.6% | Relative proliferation proportion of T24 cells (RAG1-40-31 1 nM + valrubicin 1000 nm): 49.6% | Relative proliferation proportion of T24 cells (RAG1-40-31 1 nM + valrubicin 10000 nm): 16.6% | Relative proliferation proportion of T24 cells (RAG1-40-31 1 nM, Control (no MMC)): 85.9% | Relative proliferation proportion of T24 cells (RAG1-40-31 1 nM, Control (no valrubicin)): 79.7% | Relative proliferation proportion of T24 cells (RAG1-40-31 5 nM + MMC 1 nM): 37.4% | Relative proliferation proportion of T24 cells (RAG1-40-31 5 nM + MMC 10 nM): 36.3% | Relative proliferation proportion of T24 cells (RAG1-40-31 5 nM + MMC 100 nM): 26.0% | Relative proliferation proportion of T24 cells (RAG1-40-31 5 nM + MMC 1000 nM): 7.7% | Relative proliferation proportion of T24 cells (RAG1-40-31 5 nM + MMC 10000 nM): 3.1% | Relative proliferation proportion of T24 cells (RAG1-40-31 5 nM + valrubicin 1 nm): 37.2% | Relative proliferation proportion of T24 cells (RAG1-40-31 5 nM + valrubicin 10 nm): 33.3% | Relative proliferation proportion of T24 cells (RAG1-40-31 5 nM + valrubicin 100 nm): 42.1% | Relative proliferation proportion of T24 cells (RAG1-40-31 5 nM + valrubicin 1000 nm): 25.7% | Relative proliferation proportion of T24 cells (RAG1-40-31 5 nM + valrubicin 10000 nm): 8.0% | Relative proliferation proportion of T24 cells (RAG1-40-31 5 nM, Control (no MMC)): 42.1% | Relative proliferation proportion of T24 cells (RAG1-40-31 5 nM, Control (no valrubicin)): 38.5% | Relative proliferation proportion of T24 cells (RAG1-40-31 10 nM + MMC 1 nM): 19.8% | Relative proliferation proportion of T24 cells (RAG1-40-31 10 nM + MMC 10 nM): 27.0% | Relative proliferation proportion of T24 cells (RAG1-40-31 10 nM + MMC 100 nM): 16.7% | Relative proliferation proportion of T24 cells (RAG1-40-31 10 nM + MMC 1000 nM): 5.3% | Relative proliferation proportion of T24 cells (RAG1-40-31 10 nM + MMC 10000 nM): 2.5% | Relative proliferation proportion of T24 cells (RAG1-40-31 10 nM + valrubicin 1 nm): 27.2% | Relative proliferation proportion of T24 cells (RAG1-40-31 10 nM + valrubicin 10 nm): 23.3% | Relative proliferation proportion of T24 cells (RAG1-40-31 10 nM + valrubicin 100 nm): 26.9% | Relative proliferation proportion of T24 cells (RAG1-40-31 10 nM + valrubicin 1000 nm): 21.7% | Relative proliferation proportion of T24 cells (RAG1-40-31 10 nM + valrubicin 10000 nm): 5.1% | Relative proliferation proportion of T24 cells (RAG1-40-31 10 nM, Control (no MMC)): 22.0% | Relative proliferation proportion of T24 cells (RAG1-40-31 10 nM, Control (no valrubicin)): 23.9% | Relative proliferation proportion of T24 cells (RAG1-40-31 25 nM + MMC 1 nM): 15.4% | Relative proliferation proportion of T24 cells (RAG1-40-31 25 nM + MMC 10 nM): 20.9% | Relative proliferation proportion of T24 cells (RAG1-40-31 25 nM + MMC 100 nM): 12.4% | Relative proliferation proportion of T24 cells (RAG1-40-31 25 nM + MMC 1000 nM): 4.1% | Relative proliferation proportion of T24 cells (RAG1-40-31 25 nM + MMC 10000 nM): 1.9% | Relative proliferation proportion of T24 cells (RAG1-40-31 25 nM + valrubicin 1 nm): 16.5% | Relative proliferation proportion of T24 cells (RAG1-40-31 25 nM + valrubicin 10 nm): 20.4% | Relative proliferation proportion of T24 cells (RAG1-40-31 25 nM + valrubicin 100 nm): 19.5% | Relative proliferation proportion of T24 cells (RAG1-40-31 25 nM + valrubicin 1000 nm): 13.2% | Relative proliferation proportion of T24 cells (RAG1-40-31 25 nM + valrubicin 10000 nm): 3.4% | Relative proliferation proportion of T24 cells (RAG1-40-31 25 nM, Control (no MMC)): 13.6% | Relative proliferation proportion of T24 cells (RAG1-40-31 25 nM, Control (no valrubicin)): 15.1% | Relative proliferation proportion of T24 cells (RAG1-40-31 50 nM + MMC 1 nM): 20.1% | Relative proliferation proportion of T24 cells (RAG1-40-31 50 nM + MMC 10 nM): 19.8% | Relative proliferation proportion of T24 cells (RAG1-40-31 50 nM + MMC 100 nM): 10.8% | Relative proliferation proportion of T24 cells (RAG1-40-31 50 nM + MMC 1000 nM): 4.2% | Relative proliferation proportion of T24 cells (RAG1-40-31 50 nM + MMC 10000 nM): 2.1% | Relative proliferation proportion of T24 cells (RAG1-40-31 50 nM + valrubicin 1 nm): 18.4% | Relative proliferation proportion of T24 cells (RAG1-40-31 50 nM + valrubicin 10 nm): 18.8% | Relative proliferation proportion of T24 cells (RAG1-40-31 50 nM + valrubicin 100 nm): 18.7%
